Laboratory results from PMC6792352, “Limited Chemical Structural Diversity Found to Modulate Thyroid Hormone Receptor in the Tox21 Chemical Library” (Environmental Health Perspectives, 2019).
Counter-ions that a name gives are not always drawn.

Experiment: in vitro
Settings: rat, gh3-tre-luc cells, AC50 (uM) modified / 1000
With `Cc1cc(N)c2ccccc2[n+]1CCCCCCCCCC[n+]1c(C)cc(N)c2ccccc21` [Dequalinium dichloride] the CC50 at 24 h was 12.4 µM. In the case of `CCCCCCCCCCCCS` [1-Dodecanethiol], the CC50 at 24 h is reported as > 90 µM. With `CN(C)c1ccc(N=NS(=O)(=O)O)cc1` [Fenaminosulf] the CC50 at 24 h was > 90 µM. With `CCC(NC(C)C)C(O)c1ccc(O)c(O)c1` (stereo not drawn) [Isoetharine mesylate] the CC50 at 24 h was > 50 µM. In the case of `CCC(C)NC(N)=O` (stereo not drawn) [sec-Butylurea], the CC50 at 24 h is reported as > 90 µM. With `CC1(C)C(=O)N(Cl)C(=O)N1Cl` [1,3-Dichloro-5,5-dimethylhydantoin] the CC50 at 24 h was > 90 µM. In the case of `ClC(Cl)c1ccccc1` [Benzal chloride], the CC50 at 24 h is reported as > 90 µM. With `O=C1C(Cl)C(CCl)CN1c1cccc(C(F)(F)F)c1` (stereo not drawn) [Flurochloridone] the CC50 at 24 h was > 90 µM. For `Nc1ncnc2c1ncn2[C@H]1CC[C@@H](CO)O1` [2',3'-Dideoxyadenosine], the CC50 at 24 h was > 90 µM. `N#Cc1ccc2c(c1)N(CCCN1CCC(O)CC1)c1ccccc1S2` [Periciazine] showed a CC50 at 24 h of 14.3 µM. For `S=C=Nc1ccc(N=C=S)cc1` [Bitoscanate], the CC50 at 24 h was > 50 µM. In the case of `O=C(c1ccc(O)cc1)c1ccc(O)cc1O` [2,4,4'-Trihydroxybenzophenone], the CC50 at 24 h is reported as > 90 µM. In the case of `CCC(CC)Nc1ccc(C)c(C)c1` [N-(1-Ethylpropyl)-3,4-xylidine], the CC50 at 24 h is reported as > 90 µM. With `CC(C(=O)O)c1cccc(Oc2ccccc2)c1` (stereo not drawn) [Fenoprofen calcium salt dihydrate] the CC50 at 24 h was > 20 µM. With `CCN(CC)CCNC(=O)c1ccc(NC(C)=O)cc1` [Acecainide hydrochloride] the CC50 at 24 h was > 50 µM. With `O=C(O)CCCl` [3-Chloropropanoic acid] the CC50 at 24 h was > 90 µM. In the case of `CC(C)(C)C(=O)C(=O)O` [3,3-Dimethyl-2-oxobutyric acid], the CC50 at 24 h is reported as > 90 µM. With `CC(=O)c1ccc2c(c1)N(CCCN1CCN(CCO)CC1)c1ccccc1S2` [Acetophenazine dimaleate] the CC50 at 24 h was 16.5 µM. In the case of `CC(=O)c1c(C)cc(C(C)(C)C)cc1C` [4'-tert-Butyl-2',6'-dimethylacetophenone], the CC50 at 24 h is reported as > 90 µM. In the case of `Clc1cccc(Cl)c1Cl` [1,2,3-Trichlorobenzene], the CC50 at 24 h is reported as > 90 µM. With `N[C@H](CCC(=O)O)C(=O)O` [D-Glutamic acid] the CC50 at 24 h was > 50 µM. Compound `O=C(NOCC1CC1)c1ccc(F)c(F)c1Nc1ccc(I)cc1Cl` [C.I. 1040] has a CC50 at 24 h of 21.1 µM. With `CCN1CCC[C@H]1CNC(=O)c1c(O)c(Cl)cc(Cl)c1OC` [Raclopride] the CC50 at 24 h was > 50 µM. In the case of `NCC1CCCC(CN)C1` (stereo not drawn) [1,3-Cyclohexanedimethanamine], the CC50 at 24 h is reported as > 90 µM. In the case of `CC(=O)Nc1c(I)c(C(=O)O)c(I)c(N(C)C(C)=O)c1I` [Metrizoate sodium], the CC50 at 24 h is reported as > 50 µM. In the case of `CC1(C)[C@H]2CC[C@]1(C)[C@H](O)C2` [[(1S)-endo]-(-)-Borneol], the CC50 at 24 h is reported as > 90 µM. With `Nc1nc(N)c(-c2ccccc2)s1` [Amiphenazole] the CC50 at 24 h was > 50 µM. In the case of `COc1ccc([C@@H]2Sc3ccccc3N(CCN(C)C)C(=O)[C@@H]2OC(C)=O)cc1` [(+)-Diltiazem], the CC50 at 24 h is reported as 22.9 µM. For `CCN(CC)C(=O)c1cccnc1` [N,N-Diethylnicotinamide], the CC50 at 24 h was > 50 µM. With `C=C[Si](OCCOC)(OCCOC)OCCOC` the CC50 at 24 h was > 90 µM. With `CCCCCCC(C)OC(=O)COc1nc(F)c(Cl)c(N)c1Cl` (stereo not drawn) [Fluroxypyr-meptyl] the CC50 at 24 h was 51.1 µM. For `C=C(C)C(=O)OCCCCCCOC(=O)C(=C)C` [1,6-Hexanediol dimethacrylate], the CC50 at 24 h was > 90 µM. With `CNC(=O)Oc1ccc2c(c1)[C@]1(C)CCN(C)[C@@H]1N2C` [Physostigmine] the CC50 at 24 h was > 90 µM. With `NC(=O)NC(=O)Cc1ccccc1` [Phenacemide] the CC50 at 24 h was > 50 µM. For `CCOC(=O)O[C@]1(C(=O)COC(=O)CC)CC[C@H]2[C@@H]3CCC4=CC(=O)C=C[C@]4(C)[C@H]3[C@@H](O)C[C@@]21C` [Prednicarbate], the CC50 at 24 h was > 20 µM. For `O=C(NCCCN1CCOCC1)c1ccc(Cl)cc1` [Eprobemide], the CC50 at 24 h was > 50 µM. For `CCCCOc1ccc(N)cc1` [4-Butyloxyaniline], the CC50 at 24 h was > 90 µM. For `CCN(CC)C(=O)N1CCN(C)CC1` [Diethylcarbamazine citrate], the CC50 at 24 h was > 20 µM. For `CCCC(CCC)C(N)=O` [Valpromide], the CC50 at 24 h was > 50 µM. With `CNC(=O)N(C)c1nc2ccccc2s1` [Methabenzthiazuron] the CC50 at 24 h was > 90 µM. For `CS(=O)(=O)OCCCCOS(C)(=O)=O` [Busulfan], the CC50 at 24 h was > 90 µM. For `O=C(O)Cc1cccc2ccccc12` [Potassium 1-naphthaleneacetate], the CC50 at 24 h was > 90 µM. For `Cc1nc2n(c(=O)c1CCN1CCC(c3noc4cc(F)ccc34)CC1)CCCC2O` (stereo not drawn) [Paliperidone], the CC50 at 24 h was > 50 µM. With `Oc1ccc2ccc3cccc4ccc1c2c34` [1-Hydroxypyrene] the CC50 at 24 h was > 90 µM. For `CCOC(=O)C1=C[C@@H](OC(CC)CC)[C@H](NC(C)=O)[C@@H](N)C1` [Oseltamivir tartrate], the CC50 at 24 h was > 50 µM. For `CC1=C2[C@@H]([C@H](C)CC[C@H]2/C=C(\C)C(=O)O)[C@H](O)C1` [Hydroxyvalerenic acid], the CC50 at 24 h was > 90 µM. In the case of `N#CCCCCC#N` [Hexanedinitrile], the CC50 at 24 h is reported as > 90 µM. With `CC(C)(C)NCC(O)c1cc(O)cc(O)c1` (stereo not drawn) [Terbutaline hemisulfate] the CC50 at 24 h was > 50 µM. For `Nc1cc(Cl)c(N)c(Cl)c1` [2,6-Dichloro-1,4-benzenediamine], the CC50 at 24 h was > 90 µM. For `CC(C)CCCCCCCOC(=O)c1ccc(C(=O)OCCCCCCCC(C)C)c(C(=O)OCCCCCCCC(C)C)c1` [Triisodecyl trimellitate], the CC50 at 24 h was > 80 µM. For `CC(=O)c1ccc2ccc3ccccc3c2c1` [3-Acetylphenanthrene], the CC50 at 24 h was > 90 µM. For `O=P(O)(O)OC(Cn1cncn1)(Cn1cncn1)c1ccc(F)cc1F` [Fosfluconazole], the CC50 at 24 h was > 50 µM. With `O[C@H]1[C@H](O)[C@@H](O)[C@H](O)[C@@H](O)[C@H]1O` [myo-Inositol] the CC50 at 24 h was > 90 µM. Work on `O=C(CCCCCCCCc1cccnc1)N1CCC(C=C(c2ccccc2)c2ccccc2)CC1` [Ro 23-7637] yielded a CC50 at 24 h of 26.1 µM. In the case of `CCCc1nc(C(C)(C)O)c(C(=O)OCc2oc(=O)oc2C)n1Cc1ccc(-c2ccccc2-c2nnn[nH]2)cc1` [Olmesartan medoxomil], the CC50 at 24 h is reported as > 50 µM. In the case of `C=CCOCC(CO)(CO)CO` [Pentaerythritol allyl ether], the CC50 at 24 h is reported as > 60 µM. With `CCCCN1CCCC1C(=O)Nc1c(C)cc(C)cc1C` (stereo not drawn) [Bumecaine] the CC50 at 24 h was > 50 µM. With `CCCCC(=O)O` [Pentanoic acid] the CC50 at 24 h was > 90 µM. In the case of `C[n+]1ccn(Cc2ccccc2)c1` [1-Benzyl-3-methylimidazolium chloride], the CC50 at 24 h is reported as > 90 µM. In the case of `COc1ccc(C)cc1` [1-Methoxy-4-methylbenzene], the CC50 at 24 h is reported as > 90 µM. In the case of `COc1cc2nc(N(C)CCCNC(=O)C3CCCO3)nc(N)c2cc1OC` (stereo not drawn) [Alfuzosin hydrochloride], the CC50 at 24 h is reported as > 20 µM. With `Cn1c(=O)cc(Oc2ccc(F)cc2F)c2cnc(NCC(C)(C)O)nc21` [PharmaGSID_48507] the CC50 at 24 h was > 90 µM.

Same assay, conditions: rat, gh3-tre-luc cells, AC50 (uM) modified / 1000, Tox21_110001=Tox21_111800; viability, 1 nM T3 present, 24 h
In the case of `CCOC(=O)/C=C(C)/C=C/C[C@@H](C)CCCC(C)C` [(7S)-Hydroprene], the CC50 at 24 h is reported as > 50 µM.

Same assay, conditions: rat, gh3-tre-luc cells, AC50 (uM) modified / 1000, Tox21_110001=Tox21_112264; viability, 1 nM T3 present, 24 h
In the case of `CC(=O)[C@H]1CC[C@H]2[C@@H]3CC[C@H]4C[C@](C)(O)CC[C@]4(C)[C@H]3CC[C@]12C` [Ganaxolone], the CC50 at 24 h is reported as > 50 µM.

Same assay, conditions: rat, gh3-tre-luc cells, AC50 (uM) modified / 1000, Tox21_110001=Tox21_200153; viability, 1 nM T3 present, 24 h
In the case of `ClC(Br)Br` [Chlorodibromomethane], the CC50 at 24 h is reported as > 90 µM.

Same assay, conditions: rat, gh3-tre-luc cells, AC50 (uM) modified / 1000, Tox21_110001=Tox21_200806; viability, 1 nM T3 present, 24 h
With `ClC(Cl)Br` [Bromodichloromethane] the CC50 at 24 h was > 90 µM.

Same assay, conditions: rat, gh3-tre-luc cells, AC50 (uM) modified / 1000, Tox21_110001=Tox21_300592; viability, 1 nM T3 present, 24 h
For `ClC1(Cl)C2(Cl)C3(Cl)C4(Cl)C(Cl)(Cl)C5(Cl)C3(Cl)C1(Cl)C5(Cl)C24Cl` (stereo not drawn) [Mirex], the CC50 at 24 h was > 90 µM.

Same assay, conditions: rat, gh3-tre-luc cells, AC50 (uM) modified / 1000, Tox21_110001=Tox21_301066; viability, 1 nM T3 present, 24 h
`CCOC(=O)/C=C(C)/C=C/C[C@@H](C)CCCC(C)C` [(7S)-Hydroprene] showed a CC50 at 24 h of 87.1 µM.

Same assay, conditions: rat, gh3-tre-luc cells, AC50 (uM) modified / 1000, Tox21_110001=Tox21_301190; viability, 1 nM T3 present, 24 h
With `O=S(=O)(c1ccccc1)c1ccccc1` [Diphenylsulfone] the CC50 at 24 h was > 90 µM.
